Measured values reported in ChEMBL document CHEMBL1132783, “Dibasic inhibitors of human mast cell tryptase. Part 1: synthesis and optimization of a novel class of inhibitors” (Bioorg Med Chem Lett, 2000).

How the values were obtained:
[1] = target: Serine protease 1 (Homo sapiens, UniProt P07477); assay: Inhibitory potency against trypsin
[2] = target: Plasminogen (Homo sapiens, UniProt P00747); assay: Inhibitory potency against plasmin
[3] = target: Tryptase beta-1 (Homo sapiens, UniProt Q15661); assay: Inhibitory potency against tryptase
Chain of Tryptase beta-1 (Q15661 whole entry): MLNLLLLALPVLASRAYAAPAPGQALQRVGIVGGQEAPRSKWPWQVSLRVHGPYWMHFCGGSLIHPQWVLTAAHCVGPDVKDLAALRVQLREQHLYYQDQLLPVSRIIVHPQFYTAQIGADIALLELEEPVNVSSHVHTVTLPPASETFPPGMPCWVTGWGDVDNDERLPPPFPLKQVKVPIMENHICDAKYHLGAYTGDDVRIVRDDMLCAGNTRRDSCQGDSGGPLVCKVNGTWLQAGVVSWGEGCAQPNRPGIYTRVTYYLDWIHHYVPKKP

[4] = target: Prothrombin (Homo sapiens, UniProt P00734); assay: Inhibitory potency against thrombin

Chain of Plasminogen (P00747 97-580 limits assumed): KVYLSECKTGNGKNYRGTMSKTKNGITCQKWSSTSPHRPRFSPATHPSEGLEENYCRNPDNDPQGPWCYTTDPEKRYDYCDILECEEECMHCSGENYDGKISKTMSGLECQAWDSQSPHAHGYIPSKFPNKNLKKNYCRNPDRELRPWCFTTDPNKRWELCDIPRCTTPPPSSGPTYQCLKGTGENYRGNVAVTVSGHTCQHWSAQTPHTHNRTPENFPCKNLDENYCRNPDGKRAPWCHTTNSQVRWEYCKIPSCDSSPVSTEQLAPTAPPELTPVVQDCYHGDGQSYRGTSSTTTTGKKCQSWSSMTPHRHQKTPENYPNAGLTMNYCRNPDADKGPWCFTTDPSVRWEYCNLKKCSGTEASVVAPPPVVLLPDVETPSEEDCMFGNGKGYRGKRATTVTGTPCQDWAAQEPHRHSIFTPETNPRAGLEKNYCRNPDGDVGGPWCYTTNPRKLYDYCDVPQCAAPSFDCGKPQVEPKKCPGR
Chain of Plasminogen (P00747 581-810 limits assumed): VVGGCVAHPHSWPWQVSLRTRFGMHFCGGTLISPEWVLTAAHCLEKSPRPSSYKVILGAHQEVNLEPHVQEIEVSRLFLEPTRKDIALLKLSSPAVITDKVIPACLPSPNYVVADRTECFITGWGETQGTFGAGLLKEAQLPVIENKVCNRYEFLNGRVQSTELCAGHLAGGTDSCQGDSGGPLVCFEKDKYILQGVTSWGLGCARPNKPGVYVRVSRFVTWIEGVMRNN
Chain of Serine protease 1 (P07477 whole entry): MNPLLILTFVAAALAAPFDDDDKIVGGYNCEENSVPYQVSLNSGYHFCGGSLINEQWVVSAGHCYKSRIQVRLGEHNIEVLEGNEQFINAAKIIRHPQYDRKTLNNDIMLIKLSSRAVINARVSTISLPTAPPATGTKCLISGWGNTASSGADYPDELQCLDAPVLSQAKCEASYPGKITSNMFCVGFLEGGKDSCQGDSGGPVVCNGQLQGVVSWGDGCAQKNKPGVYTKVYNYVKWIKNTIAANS

Ki [1]	Ki [2]	Ki [3]	Ki [4]	Structure (SMILES)
274 µM	> 1000 µM	0.009 µM	> 1000 µM	NCc1ccc(CNC(=O)CCCC(=O)NCc2ccc(CNC(=O)CCCC(=O)NCc3ccc(CN)cc3)cc2)cc1
146 µM	> 1000 µM	0.04 µM	> 1000 µM	N=C(N)Nc1ccc(CNC(=O)CCC(=O)NCc2ccc(CNC(=O)CCC(=O)NCc3ccc(NC(=N)N)cc3)cc2)cc1
38 µM	> 1000 µM	0.031 µM	> 1000 µM	C[C@@H](NC(=O)OCc1ccc(COC(=O)N[C@H](C)C(=O)NCc2ccc(CN)cc2)cc1)C(=O)NCc1ccc(CN)cc1
–	> 1000 µM	0.0006 µM	> 1000 µM	NCc1ccc(CNC(=O)CNC(=O)OCc2ccc(COC(=O)NCC(=O)NCc3ccc(CN)cc3)cc2)cc1
72 µM	> 1000 µM	0.09 µM	> 1000 µM	N=C(N)Nc1ccc(CNC(=O)CCNC(=O)OCc2ccc(COC(=O)NCCC(=O)NCc3ccc(NC(=N)N)cc3)cc2)cc1
44 µM	> 1000 µM	101 µM	14 µM	O=C(NCc1ccccc1)N1CCN(C(=O)O[C@H]2CCC[C@@H](OC(=O)N3CCN(C(=O)NCc4ccccc4)CC3)CCC2)CC1
73 µM	> 1000 µM	0.68 µM	> 1000 µM	N=C(N)Nc1ccc(CNC(=O)CC(=O)NCc2ccc(CNC(=O)CC(=O)NCc3ccc(NC(=N)N)cc3)cc2)cc1
39 µM	494 µM	–	435 µM	N=C(N)Nc1ccc(CNC(=O)N2CCN(C(=O)O[C@H]3CCC[C@@H](OC(=O)N4CCN(C(=O)NCc5ccc(NC(=N)N)cc5)CC4)CCC3)CC2)cc1
78 µM	> 1000 µM	0.002 µM	> 1000 µM	NC(N)=Nc1ccc(CNC(=O)NCC(=O)O[C@H]2CCC[C@@H](OC(=O)CNC(=O)NCc3ccc(N=C(N)N)cc3)CCC2)cc1
56 µM	> 1000 µM	0.01 µM	> 1000 µM	NC(N)=Nc1ccc(CNC(=O)CNC(=O)OCc2ccc(COC(=O)NCC(=O)NCc3ccc(N=C(N)N)cc3)cc2)cc1
> 1000 µM	> 1000 µM	2 µM	> 1000 µM	CN(Cc1ccc(CN)cc1)C(=O)CCC(=O)NCc1ccc(CNC(=O)CCC(=O)N(C)Cc2ccc(CN)cc2)cc1
70 µM	> 1000 µM	0.1 µM	492 µM	N=C(N)Nc1ccc(CNC(=O)CCCC(=O)NCc2ccc(CNC(=O)CCCC(=O)NCc3ccc(NC(=N)N)cc3)cc2)cc1
182 µM	> 1000 µM	15 µM	> 1000 µM	N=C(N)Nc1ccc(CNC(=O)N2CCN(C(=O)O[C@H]3CCC[C@@H](OC(=O)N4CCN(C(=O)NCc5ccccc5)CC4)CCC3)CC2)cc1
162 µM	214 µM	0.005 µM	> 1000 µM	CN(Cc1ccc(CN(C)C(=O)CCC(=O)NCc2ccc(CN)cc2)cc1)C(=O)CCC(=O)NCc1ccc(CN)cc1
273 µM	83 µM	0.366 µM	> 1000 µM	C[C@H](NC(=O)OCc1ccc(COC(=O)N[C@@H](C)C(=O)NCc2ccc(CN)cc2)cc1)C(=O)NCc1ccc(CN)cc1
50 µM	> 230 µM	0.005 µM	> 1000 µM	CN(CC(=O)NCc1ccc(CN)cc1)C(=O)OCc1ccc(COC(=O)N(C)CC(=O)NCc2ccc(CN)cc2)cc1

Structure (SMILES)	Ki [1]	Ki [2]	Ki [3]	Ki [4]
NCc1ccc(CNC(=O)CCC(=O)NCc2ccc(CNC(=O)CCC(=O)NCc3ccc(CN)cc3)cc2)cc1	237 µM	769 µM	0.003 µM	> 1000 µM
NCc1ccc(CNC(=O)CC(=O)NCc2ccc(CNC(=O)CC(=O)NCc3ccc(CN)cc3)cc2)cc1	317 µM	> 1000 µM	0.15 µM	> 1000 µM
